Data as given in article PMC7143549, “Anticancer Activities of Meroterpenoids Isolated from the Brown Alga Cystoseira usneoides against the Human Colon Cancer Cells HT-29” (Foods, 2020).
≈ marks a conversion by molar mass, not a printed value. Read-outs that look alike come from different tables or passages of the source.

Assays:
[1] = tested on: normal human colonic epithelial cells CCD 841 CoN; assay: Sulforhodamine B (SRB) cell viability assay, CCD 841 CoN; type: cell-based; details: normal colon cells, 72 h of treatment, mean ± SE of three experiments, read-out: IC50 CCD841 CoN
Description: (§1) Cell viability was quantified using the Sulforhodamine B assay described by Skehan et al.. Cells were plated with a density of 5 × 10^3 (HT-29) and 1 × 10^4 (CCD 841 CoN) cells/well and allowed to attach at 37 °C in an atmosphere with 5% CO2. After 24 h, the AMTs dissolved in DMSO were added to the cells (final concentrations of 10, 20, 30, and 50 µg/mL and less than 0.05% of DMSO) and the plates were incubated for 72 h. Then, the cells were fixed by adding 50 μL of TCA (50%) to each well and the plates were maintained for 1 h at 4 °C. The plates were washed five times with deionized water, air-dried, and stained for 30 min at room temperature with 100 μL of 0.4% (w/v) SRB prepared in 1% (v/v) acetic acid. The plates were rinsed quickly five times with 1% acetic acid to remove unbound dye, followed by air-drying. The bound dye was solubilized in 2 mM Tris base (100 μL/well) for 5 min. Optical densities were read on a microplate reader (Spectrophotometer LabsystemsMultiskan EX, λ 492 nm). Three independent assays were conducted, each one in duplicate. A standard curve was constructed for each experiment and used for converting the measured optical density values into numbers of viable cells/well. The inhibition rate was used to evaluate the cell viability and its algorithm was the following formula: ((ODcontrol − ODtreatment)/ODcontrol) × 100; OD, optical density. The OD492 for control cells was taken as 100% viability. The half maximal inhibitory concentration (IC50) was calculated. The selectivity index (SI) of each compound was calculated as IC50 of the compound against the CCD 841 CoN normal cell line/IC50 of the same compound against the HT-29 cancer cell line.

HT-29 cells [2] = assay: Wound migration assay; type: cell-based, human; details: 24 h, wound-healing; for inhibition at 10 µg/mL: Homo sapiens, HT-29, 10 μg/mL, read-out: inhibition of cell migration
Description: For cell migration assay, HT-29 cells were seeded in six-well culture plates and allowed to grow to 80%–90% confluence for the experiment. After aspirating the medium, similar sized wounds were performed in the monolayer cells using a sterile micropipette tip. Wounded monolayer cells were washed three times with PBS to remove cell debris and then replaced with complete McCoy’s medium. HT-29 cells were treated with the AMTs (10 µg/mL for compounds 1, 2, 5, 6, 7, and 8, and 30 µg/mL for compounds 3 and 4) and incubated for 24h. For the image analysis of the effect of each treatment on cell migration, the wounded area was photographed immediately after scratching and after 24 h. The level of cell migration was determined using NIH Image software (Image J 1.44g, Wayne Rasband, USA) and then expressed as a percentage of wound closure area using the equation: Migration rate (%) = [(wound area at 0 h − wound area at 24 h)/wound area at 0 h] × 100%.

[3] = tested on: HT-29 human colon carcinoma cells; assay: Sulforhodamine B (SRB) cell viability assay, HT-29; type: cell-based; details: for IC50: Homo sapiens, HT-29, 72 h; for Selectivity Index (SI): IC50 for normal cells CCD 841 CoN / IC50 for cancer cells HT-29
Description: as §1

p-AKT in HT-29 cells = assay: Western blot of phosphorylated AKT; type: cell-based, human; details: 24 h; 10 and 20 μg/mL for 1, 2, 5, 6, 7, 8; 30 and 60 μg/mL for 3 and 4
Description: (§2) Cells were cultured to 80% confluence at 37 °C. After 24 h of treatment with the compounds (10 and 20 µg/mL for compounds 1, 2, 5, 6, 7, and 8, and 30 and 60 µg/mL for compounds 3 and 4), HT-29 cells were rinsed twice with ice-cold PBS, and then lysed immediately in lysis buffer (250 mM NaCl, 50 mM Tris (pH 7.5), 0.5 mM EDTA, 5 mM EGTA, 8 mM MgCl2, 1 mM PMSF, 0.01 mg/mL pepstatin A, 0.01 mg/mL leupeptin, 0.01 mg/mL aprotinin, 1% Triton X-100). After centrifugation at 12,000 g for 3 min at 4°C to separate the cellular debris, the supernatant was collected and stored at −80°C until use. The protein concentrations were determined using Bio-Rad Protein Assay (BioRad, Richmond, CA, USA), according to the manufacturer’s instructions.
(§3) Equal protein content (50 μg) samples of cell lysates were separated on 10% SDS–polyacrylamide gel and transferred to polyvinylidene difluoride membranes (Hybond-P, Amershan Biosciences, Little Chalfont, UK). The membranes were blocked with 5% (w/v) non-fat dry milk in Tris-buffered saline containing 0.1% Tween-20 buffer (pH 7.4) (TBST) for 1 h at room temperature and incubated with agitation with specific antibodies: anti-pERK1/2 (Cell Signaling; 1:1000), anti-pJNK (Cell Signaling; 1:1000), anti-pAKT (Cell Signaling; 1:1000), anti-β-actin (Sigma-Aldrich; 1:500). Membranes were incubated overnight at 4°C with gentle shaking. The secondary antibody was a peroxidase-conjugated goat anti-mouse or -rabbit antibody (1:10,000; DakoCytomation, Carpinteria, CA, USA). After washing the membrane three times in TBST buffer (10 min), the signals were detected using an enhanced chemiluminescence light-detecting kit (Super-Signal West Pico Chemiluminescent Substrate, Pierce, IL, USA), according to the manufacturer’s instructions and exposed to an X-ray film (GE Healthcare Ltd., Amersham, UK). The protein band densities were analyzed and quantified with a Scientific Imaging Systems (Biophotonics ImageJ Analysis Software, National Institute of Mental Health, Bethesda, MD, USA). β-actin was used to confirm the equal loading and transfer of proteins.

p-JNK in HT-29 cells = assay: Western blot of phosphorylated JNK; type: cell-based, human; details: 24 h; 10 and 20 μg/mL for 1, 2, 5, 6, 7, 8; 30 and 60 μg/mL for 3 and 4
Description: as §2, §3

HT-29 colon cancer cells [4] = assay: Annexin V-FITC/PI flow cytometry apoptosis induction assay; type: cell-based, human; details: 24 h; for necrosis (dead cells): 30 μg/mL
Description: Quantitative assessment of apoptosis was performed by flow cytometry using an Annexin V-FITC Apoptosis Detection Kit. Briefly, 1 × 10^6 HT-29 cells were seeded per well in six-well plates and incubated for 24 h, followed by the addition of the AMTs dissolved in DMSO (final concentrations of 10, 20, and 30 µg/mL for compounds 1, 2, 5, 6, 7, and 8, and 30, 60, and 90 µg/mL for compounds 3 and 4, and less than 0.05% DMSO) and incubation for 24 h. Curcumin (final concentrations of 50 and 75 μM) was used as positive control. The cells were then washed, harvested with trypsin, and centrifuged at 1500 rpm (5 min, 25 °C). The pellet was resuspended in 195 µL of 1 × Annexin buffer and then stained with 5 μL of Annexin V-FITC and 10 μL of PI for 10 min at room temperature, in the dark. To this mixture 200 μL of 1 × Annexin buffer was added before analysis using a Cytomics FC500 flow cytometer (Beckman Coulter, Indianapolis, IN, USA). Following a gating strategy, flow cytometry plots of size (FS) and complexity (SS) of the HT-29 cells were previously established for the elaboration of a measurement protocol. The normal healthy cells, early apoptosis, late apoptosis, and necrotic populations were represented by annexin V-negative/PI-negative population, annexin V-positive/PI-negative, annexin V-positive/PI-positive and annexin-negative/PI-positive cells, respectively. A total of 10,000 cellular events in each sample were analyzed using DML program.

HT-29 colon cancer cells [5] = assay: Cell cycle analysis by flow cytometry (PI); type: cell-based, human; details: 24 h; 30 μg/mL of 1, 2, 5, 6, 7, 8 and 90 μg/mL of 3 and 4 (Figure 4B)
Description: HT-29 cells (1 × 10^6 cells/well) were seeded in six-well plates and incubated for 24 h, followed by treatment with AMTs dissolved in DMSO (final concentrations of 10, 20, and 30 µg/mL for compounds 1, 2, 5, 6, 7, and 8, and 30, 60, and 90 µg/mL for compounds 3 and 4, and always below 0.05% DMSO) and 24 h of additional incubation. Colchicine (final concentration of 0.2 μg/mL) was used as positive control. The cells were then washed, harvested with trypsin, and centrifuged at 1500 rpm (5 min, 25 °C). The resulting pellet was fixed with ice-cold 70% ethanol (1 mL/10^6 cells) and the samples were stored at −4°C overnight. After fixation, the cells were washed with PBS, stained with PBS containing 5 mg/mL of RNase A, and incubated for 48 h at 4 °C. Subsequently, 50 μL of 0.1 mg/mL of IP was added and incubated for 1 h at 4 °C. The relative DNA content per cell was analyzed using a Cytomics FC500 flow cytometer (Beckman Coulter, Indianapolis, IN, USA). The data acquisition was performed with the DML program and the analysis of the acquired data with the CXP Software (Beckman Coulter, Indianapolis, IN, USA).

p-ERK1/2 in HT-29 cells = assay: Western blot of phosphorylated ERK1/2; type: cell-based, human; details: 24 h; 10 and 20 μg/mL
Description: as §2, §3

HT-29 cells [6] = details: cited from earlier work
[7] = colon cancer cells, 72 h of treatment, SRB, mean ± SE of three experiments

IC50 [3, 7] [µg/mL] | IC50 HT-29 [3, 7] [µg/mL] | Compound | IC50 [1] [µg/mL] | inhibition of cell migration (HT-29 cells [2]; 30 μg/mL (methods, Figure 5B)) | Selectivity Index (SI) [3] | expression of p-AKT protein vs control (p-AKT in HT-29 cells) | phospho-JNK level vs control (p-JNK in HT-29 cells) | induction of apoptosis or death of HT-29 cells (HT-29 colon cancer cells [4]; 4 tested at 30-90 μg/mL, 7 at 10-30 μg/mL) | accumulation of cells at the G2/M phase (cell cycle arrest, words) (HT-29 colon cancer cells [5]) | inhibition at 10 µg/mL (HT-29 cells [2]) [%] | p-ERK1/2 level vs control (p-ERK1/2 in HT-29 cells) | necrosis (dead cells) (HT-29 colon cancer cells [4]) [%] | IC50 growth of HT-29 cells (HT-29 cells [6]) [µg/mL] | IC50 (HT-29 cells [6]; read-out: IC50 growth of HT-29 cells) [µM] | IC50 growth of HT-29 cells (HT-29 cells [6]; value in brackets, converted from μM) [µg/mL]
34.3 (≈ 95.7 µM) | 36.86 ± 2.86 (≈ 103 µM) | COc1c(C)cc(O)cc1C/C=C(\C)CC(=O)/C=C(/C)CCCC(C)=O [Compound 4, cystomexicone A] | 61.9 ± 2.37 (≈ 173 µM) | no significant effects | 1.68 | significantly downregulated | decreased phosphorylation | did not induce neither apoptosis nor death | significant | – | – | – | – | – | –
7.83 ± 0.05 (≈ 17.1 µM) | – | COc1c(C)cc(O)cc1C/C=C(\C)CC(=O)/C=C(/C)CCCC(C)C(=O)/C=C/C(C)(C)O (stereo not drawn) [Compound 5, 6-cis-amentadione-1′-methyl ether] | 41 ± 9.8 (≈ 89.7 µM) | – | 5.23 | no significant reduction | decreased phosphorylation | – | significant | 36.2 | significantly reduced | 72.75 | – | – | –
10.7 ± 0.27 (≈ 23.5 µM) | – | COc1c(C)cc(O)cc1C/C=C(\C)CC(=O)/C=C(\C)CCCC(C)C(=O)/C=C/C(C)(C)O (centres unmarked) [Compound 6, amentadione-1′-methyl ether] | 48.4 ± 3.84 (≈ 106 µM) | – | 4.51 | no significant reduction | – | – | not significant | 45.3 | significantly reduced | 59.55 | – | – | –

Second part, the compound before the results:

Compound | IC50 [3, 7] [µg/mL] | IC50 HT-29 [3, 7] [µg/mL] | IC50 [1] [µg/mL] | inhibition of cell migration (HT-29 cells [2]; 30 μg/mL (methods, Figure 5B)) | Selectivity Index (SI) [3] | expression of p-AKT protein vs control (p-AKT in HT-29 cells) | phospho-JNK level vs control (p-JNK in HT-29 cells) | induction of apoptosis or death of HT-29 cells (HT-29 colon cancer cells [4]; 4 tested at 30-90 μg/mL, 7 at 10-30 μg/mL) | accumulation of cells at the G2/M phase (cell cycle arrest, words) (HT-29 colon cancer cells [5]) | inhibition at 10 µg/mL (HT-29 cells [2]) [%] | p-ERK1/2 level vs control (p-ERK1/2 in HT-29 cells) | necrosis (dead cells) (HT-29 colon cancer cells [4]) [%] | IC50 growth of HT-29 cells (HT-29 cells [6]) [µg/mL] | IC50 (HT-29 cells [6]; read-out: IC50 growth of HT-29 cells) [µM] | IC50 growth of HT-29 cells (HT-29 cells [6]; value in brackets, converted from μM) [µg/mL]
sargachromanol R | – | – | – | – | – | – | – | – | – | – | – | – | 3.4 | – | –
zonaquinone acetate | – | – | – | – | – | – | – | – | – | – | – | – | – | 17.3 | 7.8
